The text below walks through data of ChEMBL document CHEMBL1201862, “PubChem BioAssay data set” (2004).

Test [1] is described as follows: A cytotoxicity screen of small molecule inhibitors of the PhoP region in Salmonella typhi identified in the primary screen. [Related pubchem assays: 1850, 1864, 1985 ]. Format: functional.
In another test the target is Aurora kinase A (Homo sapiens, UniProt O14965). Format: functional.
In test [2] the target is Glycogen synthase kinase-3 beta (Homo sapiens, UniProt P49841). Format: functional.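 Further: value comes from a broad kinome profiling panel, with GSK3B as the panel member.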
The target of another test is Apelin receptor (Homo sapiens, UniProt P35414). Description: apelin receptor antagonists, arrestin read-out – cell-based, luminescent, enzyme-fragment complementation, selectivity assay for CCR6 antagonist project, SAR follow-up (AID 588359). Type of test: functional.
In test [3] the target is C-X-C chemokine receptor type 5 (Homo sapiens, UniProt P32302). Description: inhibition of CXCL13-driven CXCR5 beta-arrestin recruitment – cell-based, luminescence, CHO-K1 PathHunter, selectivity assay for CCR6 antagonist project, SAR follow-up (AID 540340). Format: functional. A general note: Activated receptors often draw arrestin, which recruitment assays turn into a signal.

In test [4] the target is T1, C-C chemokine receptor type 6 (Homo sapiens, UniProt P51684).
T1 sequence (P51684 whole entry): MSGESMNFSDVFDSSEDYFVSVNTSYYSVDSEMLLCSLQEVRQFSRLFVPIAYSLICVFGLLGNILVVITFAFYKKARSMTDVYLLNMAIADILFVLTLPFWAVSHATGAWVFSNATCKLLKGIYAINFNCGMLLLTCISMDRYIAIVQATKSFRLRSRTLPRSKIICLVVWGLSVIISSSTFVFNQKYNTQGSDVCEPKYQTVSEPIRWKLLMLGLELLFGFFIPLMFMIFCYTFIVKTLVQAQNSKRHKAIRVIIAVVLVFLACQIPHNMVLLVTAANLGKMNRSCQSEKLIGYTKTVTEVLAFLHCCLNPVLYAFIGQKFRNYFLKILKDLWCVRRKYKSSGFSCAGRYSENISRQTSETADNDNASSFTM
Description: analog antagonism of CCR6 beta-arrestin signaling – cell-based, luminescent beta-arrestin readout, SAR follow-up (AID 540334). Type of test: functional.

Test [5] concerns the target T2, Sentrin-specific protease 8 (Homo sapiens, UniProt Q96LD8).
T2 sequence (Q96LD8 whole entry): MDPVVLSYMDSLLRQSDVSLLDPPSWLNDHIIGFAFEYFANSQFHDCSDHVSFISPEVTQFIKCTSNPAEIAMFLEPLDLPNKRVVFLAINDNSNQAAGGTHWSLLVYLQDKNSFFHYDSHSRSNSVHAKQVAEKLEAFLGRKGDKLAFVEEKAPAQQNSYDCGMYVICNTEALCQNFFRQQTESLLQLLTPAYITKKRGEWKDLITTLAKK
Description: inhibition of human SENP8 cleavage activity – biochemical, luminescence, SAR follow-up (AID 504501). Format: functional.

The next test addresses T3, Caspase-3 (Homo sapiens, UniProt P42574).
T3 sequence (P42574 whole entry): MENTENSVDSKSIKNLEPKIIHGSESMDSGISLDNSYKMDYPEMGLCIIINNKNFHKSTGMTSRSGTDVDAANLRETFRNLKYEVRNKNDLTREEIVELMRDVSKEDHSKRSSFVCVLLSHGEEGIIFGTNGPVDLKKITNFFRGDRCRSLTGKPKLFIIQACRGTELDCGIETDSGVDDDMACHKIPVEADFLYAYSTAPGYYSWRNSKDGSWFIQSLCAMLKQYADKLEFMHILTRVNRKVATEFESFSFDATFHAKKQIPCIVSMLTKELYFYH
Description: SAR Analysis of small molecule inhibitors of Sentrin-specific proteases (SENPs) using a Caspase-3 Selectivity assay. [Related pubchem assays (depositor defined):AID2540, AID2599, AID434973, AID489001]. Format: functional.

Test [6] concerns the target T4, Sentrin-specific protease 6 (Homo sapiens, UniProt Q9GZR1).
T4 sequence (Q9GZR1 whole entry): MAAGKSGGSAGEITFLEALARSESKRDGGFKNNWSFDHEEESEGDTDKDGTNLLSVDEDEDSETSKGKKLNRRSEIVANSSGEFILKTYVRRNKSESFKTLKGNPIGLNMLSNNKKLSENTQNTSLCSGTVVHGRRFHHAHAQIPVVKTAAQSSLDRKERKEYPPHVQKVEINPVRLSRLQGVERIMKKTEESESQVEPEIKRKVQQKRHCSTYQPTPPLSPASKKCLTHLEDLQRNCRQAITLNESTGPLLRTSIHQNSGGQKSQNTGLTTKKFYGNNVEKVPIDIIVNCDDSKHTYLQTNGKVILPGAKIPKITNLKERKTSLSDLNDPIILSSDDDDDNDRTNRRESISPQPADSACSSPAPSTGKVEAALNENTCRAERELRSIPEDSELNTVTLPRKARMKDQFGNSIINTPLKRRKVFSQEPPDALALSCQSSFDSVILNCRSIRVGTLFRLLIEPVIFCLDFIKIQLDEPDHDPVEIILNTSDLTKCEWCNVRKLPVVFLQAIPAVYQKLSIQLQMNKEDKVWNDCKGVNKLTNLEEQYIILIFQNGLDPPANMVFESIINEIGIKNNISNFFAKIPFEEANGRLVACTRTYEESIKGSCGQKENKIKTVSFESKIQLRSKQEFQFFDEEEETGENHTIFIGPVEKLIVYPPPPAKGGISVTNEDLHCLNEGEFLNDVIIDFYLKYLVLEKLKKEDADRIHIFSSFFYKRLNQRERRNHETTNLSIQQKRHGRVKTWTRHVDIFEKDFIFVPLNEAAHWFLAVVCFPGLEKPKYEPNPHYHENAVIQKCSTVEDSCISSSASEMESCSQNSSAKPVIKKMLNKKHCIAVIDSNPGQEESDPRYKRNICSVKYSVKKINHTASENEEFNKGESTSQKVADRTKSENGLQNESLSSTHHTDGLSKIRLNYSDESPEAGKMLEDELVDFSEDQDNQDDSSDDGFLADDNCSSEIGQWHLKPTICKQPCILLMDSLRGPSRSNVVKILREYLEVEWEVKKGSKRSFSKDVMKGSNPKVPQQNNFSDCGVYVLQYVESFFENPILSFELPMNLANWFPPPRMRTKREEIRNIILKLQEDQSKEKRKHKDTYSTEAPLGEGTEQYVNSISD
Description: SAR Analysis of small molecule inhibitors of Sentrin-specific protease 6 (SENP6) using a Luminescent assay. [Related pubchem assays (depositor defined):AID2582, AID2599]. Format: functional.

In test [7] the target is T5, Sentrin-specific protease 7 (Homo sapiens, UniProt Q9BQF6).
T5 sequence (Q9BQF6 whole entry): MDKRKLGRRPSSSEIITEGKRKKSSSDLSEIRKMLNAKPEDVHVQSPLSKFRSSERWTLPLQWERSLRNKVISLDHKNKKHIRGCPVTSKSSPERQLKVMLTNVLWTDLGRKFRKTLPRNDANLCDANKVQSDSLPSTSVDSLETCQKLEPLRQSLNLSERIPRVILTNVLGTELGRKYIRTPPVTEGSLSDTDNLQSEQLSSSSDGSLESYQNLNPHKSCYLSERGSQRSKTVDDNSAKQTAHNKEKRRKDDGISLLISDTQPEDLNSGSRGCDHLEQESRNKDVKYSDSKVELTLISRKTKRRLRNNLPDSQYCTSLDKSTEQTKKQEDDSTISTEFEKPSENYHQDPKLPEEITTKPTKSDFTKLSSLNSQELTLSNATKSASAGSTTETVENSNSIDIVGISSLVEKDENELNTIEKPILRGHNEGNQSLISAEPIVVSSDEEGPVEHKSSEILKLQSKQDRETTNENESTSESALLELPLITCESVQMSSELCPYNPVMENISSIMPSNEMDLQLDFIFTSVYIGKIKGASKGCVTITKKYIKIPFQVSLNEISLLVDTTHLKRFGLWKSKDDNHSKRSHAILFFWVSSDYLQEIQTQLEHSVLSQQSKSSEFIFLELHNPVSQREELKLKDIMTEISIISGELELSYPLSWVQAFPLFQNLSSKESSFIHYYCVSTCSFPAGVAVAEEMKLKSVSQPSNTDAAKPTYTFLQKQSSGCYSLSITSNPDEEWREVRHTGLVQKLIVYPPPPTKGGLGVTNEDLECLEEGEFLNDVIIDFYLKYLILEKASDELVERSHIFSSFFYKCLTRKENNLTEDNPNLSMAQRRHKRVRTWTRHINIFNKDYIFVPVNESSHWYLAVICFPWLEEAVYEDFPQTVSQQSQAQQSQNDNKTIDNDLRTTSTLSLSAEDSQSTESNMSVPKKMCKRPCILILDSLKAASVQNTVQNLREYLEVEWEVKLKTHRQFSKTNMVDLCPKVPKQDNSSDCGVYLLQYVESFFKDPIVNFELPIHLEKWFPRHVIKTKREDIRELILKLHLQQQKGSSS
Description: inhibition of human SENP7 cleavage activity – biochemical, luminescence, SAR follow-up (AID 504497). Format: functional.

Test [8] relates to Candida albicans. Description: resistant Candida growth with fluconazole co-treatment – CaCi-8 strain, Alamar Blue, dry powder, set 3, dose response (AID 488905). Type of test: functional, organism-based. (Alamar Blue is a resazurin reagent that responds to reducing activity.)
Test [9] has as its system Candida albicans. Description: Candida growth inhibition combined with fluconazole – CaCi-2 strain, Alamar Blue, dry powder, set 3, dose response (AID 488907). Format: functional, organism-based.
Test [10] addresses Serine/threonine-protein kinase pim-1 (Homo sapiens, UniProt P11309). Format: functional.
Test [11] addresses Casein kinase II subunit alpha (Homo sapiens, UniProt P68400). Type of test: functional.
Test [12] deals with Serine/threonine-protein kinase pim-3 (Homo sapiens, UniProt Q86V86). Type of test: functional.
For test [13], the target named is Serine/threonine-protein kinase BRSK1 (Homo sapiens, UniProt Q8TDC3). Type of test: functional.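 Further: measured within a kinome-wide kinase panel, with the target listed as KIAA1811.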
The target of test [14] is Tyrosine-protein kinase JAK2 (Homo sapiens, UniProt O60674). Type of test: functional.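 Further: JAK2 tested as one member of a kinase panel.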
For another test, the target named is Activin receptor type-1 (Homo sapiens, UniProt Q04771). Description: Navigating the Kinome. Panel member name: ACVR1. Format: functional.
Test [15] deals with High affinity nerve growth factor receptor (Homo sapiens, UniProt P04629). Format: functional.
Test [16] has as its target Mitogen-activated protein kinase 13 (Homo sapiens, UniProt O15264). Format: functional.
For test [17], the target named is Dual specificity tyrosine-phosphorylation-regulated kinase 1B (Homo sapiens, UniProt Q9Y463). Description: Navigating the Kinome. Panel member name: DYRK1B. Type of test: functional.
Test [18] deals with Platelet-derived growth factor receptor alpha (Homo sapiens, UniProt P16234). Description: Navigating the Kinome. Panel member name: PDGFRA. Type of test: functional.
Test [19] has as its target Leucine-rich repeat serine/threonine-protein kinase 2 (Homo sapiens, UniProt Q5S007). Type of test: functional.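 Further: value from a broad kinome-wide panel profiling study in which LRRK2 was one of the kinases tested.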
For test [20], the target named is Leukocyte tyrosine kinase receptor (Homo sapiens, UniProt P29376). Description: Navigating the Kinome. Panel member name: LTK. Type of test: functional.
Test [21] has as its target Tyrosine-protein kinase FRK (Homo sapiens, UniProt P42685). Type of test: functional.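 Further: FRK tested as one member of a kinome panel.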
In test [22] the target is ALK tyrosine kinase receptor (Homo sapiens, UniProt Q9UM73). Format: functional.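 Further: ALK tested as one member of a kinase panel screen.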
For test [23], the target named is Cyclin-dependent kinase 19 (Homo sapiens, UniProt Q9BWU1). Description: Navigating the Kinome. Panel member name: CDC2L6. Format: functional.
Another test concerns the target Wee1-like protein kinase (Homo sapiens, UniProt P30291). Description: Navigating the Kinome. Panel member name: WEE1. Format: functional.
Test [24] concerns the target Tyrosine-protein kinase SYK (Homo sapiens, UniProt P43405). Type of test: functional.
Test [25] concerns the target Mitogen-activated protein kinase kinase kinase kinase 4 (Homo sapiens, UniProt O95819). Format: functional.
For test [26], the target named is Serine/threonine-protein kinase D2 (Homo sapiens, UniProt Q9BZL6). Type of test: functional.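 Further: measured against PRKD2 as one member of a kinome-wide kinase profiling panel.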
The target in test [27] is Serine/threonine-protein kinase D3 (Homo sapiens, UniProt O94806). Format: functional.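 Further: determined within a kinase panel screen, with PRKCN as the panel member.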
For test [28], the target named is Rho-associated protein kinase 1 (Homo sapiens, UniProt Q13464). Type of test: functional.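 Further: measured within a broad kinome-wide panel profiling many kinases.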

Calls of active or inactive are those of the source.

Sequence of ALK tyrosine kinase receptor (Q9UM73 whole entry): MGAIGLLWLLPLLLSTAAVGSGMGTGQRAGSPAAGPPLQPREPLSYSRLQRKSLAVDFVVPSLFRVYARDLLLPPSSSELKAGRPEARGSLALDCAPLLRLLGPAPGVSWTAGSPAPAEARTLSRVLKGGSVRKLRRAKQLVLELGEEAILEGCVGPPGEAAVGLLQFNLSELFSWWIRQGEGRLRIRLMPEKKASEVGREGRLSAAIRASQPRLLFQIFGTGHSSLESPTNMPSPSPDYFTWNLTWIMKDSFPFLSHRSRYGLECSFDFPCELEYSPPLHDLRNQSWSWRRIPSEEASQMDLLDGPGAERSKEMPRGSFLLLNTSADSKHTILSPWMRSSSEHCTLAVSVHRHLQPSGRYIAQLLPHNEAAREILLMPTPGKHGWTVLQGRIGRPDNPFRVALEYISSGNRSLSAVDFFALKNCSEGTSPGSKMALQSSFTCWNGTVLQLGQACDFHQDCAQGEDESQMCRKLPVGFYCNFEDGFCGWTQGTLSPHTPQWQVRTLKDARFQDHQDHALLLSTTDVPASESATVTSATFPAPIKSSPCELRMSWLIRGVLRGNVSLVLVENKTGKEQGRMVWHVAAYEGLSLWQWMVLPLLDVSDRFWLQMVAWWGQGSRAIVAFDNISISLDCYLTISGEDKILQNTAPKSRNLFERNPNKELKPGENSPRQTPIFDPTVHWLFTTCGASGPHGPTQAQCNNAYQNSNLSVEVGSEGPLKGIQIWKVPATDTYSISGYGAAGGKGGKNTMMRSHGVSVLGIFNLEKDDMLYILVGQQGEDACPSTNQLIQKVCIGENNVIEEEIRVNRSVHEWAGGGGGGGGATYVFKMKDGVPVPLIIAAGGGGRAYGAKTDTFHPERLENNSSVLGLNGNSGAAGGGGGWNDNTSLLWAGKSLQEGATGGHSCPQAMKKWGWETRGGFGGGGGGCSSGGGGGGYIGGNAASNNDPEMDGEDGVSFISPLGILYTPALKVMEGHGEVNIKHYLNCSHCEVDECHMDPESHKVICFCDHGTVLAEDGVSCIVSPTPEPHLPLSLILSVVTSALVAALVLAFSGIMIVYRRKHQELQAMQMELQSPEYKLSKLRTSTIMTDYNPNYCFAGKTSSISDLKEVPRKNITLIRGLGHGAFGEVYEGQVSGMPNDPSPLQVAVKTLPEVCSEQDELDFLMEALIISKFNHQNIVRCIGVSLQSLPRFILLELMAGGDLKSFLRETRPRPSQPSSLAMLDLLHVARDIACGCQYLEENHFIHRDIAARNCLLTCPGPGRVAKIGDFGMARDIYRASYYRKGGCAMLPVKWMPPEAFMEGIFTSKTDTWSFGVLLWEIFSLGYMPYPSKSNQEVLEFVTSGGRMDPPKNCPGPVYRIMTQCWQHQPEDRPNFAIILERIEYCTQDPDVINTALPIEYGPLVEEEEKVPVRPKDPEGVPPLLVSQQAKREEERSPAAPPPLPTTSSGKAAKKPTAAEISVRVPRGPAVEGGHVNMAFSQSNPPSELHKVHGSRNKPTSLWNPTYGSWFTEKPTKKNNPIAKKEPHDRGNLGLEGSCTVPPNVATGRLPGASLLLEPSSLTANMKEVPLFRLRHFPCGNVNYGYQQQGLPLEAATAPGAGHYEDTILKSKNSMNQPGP
Sequence of Tyrosine-protein kinase JAK2 (O60674 whole entry): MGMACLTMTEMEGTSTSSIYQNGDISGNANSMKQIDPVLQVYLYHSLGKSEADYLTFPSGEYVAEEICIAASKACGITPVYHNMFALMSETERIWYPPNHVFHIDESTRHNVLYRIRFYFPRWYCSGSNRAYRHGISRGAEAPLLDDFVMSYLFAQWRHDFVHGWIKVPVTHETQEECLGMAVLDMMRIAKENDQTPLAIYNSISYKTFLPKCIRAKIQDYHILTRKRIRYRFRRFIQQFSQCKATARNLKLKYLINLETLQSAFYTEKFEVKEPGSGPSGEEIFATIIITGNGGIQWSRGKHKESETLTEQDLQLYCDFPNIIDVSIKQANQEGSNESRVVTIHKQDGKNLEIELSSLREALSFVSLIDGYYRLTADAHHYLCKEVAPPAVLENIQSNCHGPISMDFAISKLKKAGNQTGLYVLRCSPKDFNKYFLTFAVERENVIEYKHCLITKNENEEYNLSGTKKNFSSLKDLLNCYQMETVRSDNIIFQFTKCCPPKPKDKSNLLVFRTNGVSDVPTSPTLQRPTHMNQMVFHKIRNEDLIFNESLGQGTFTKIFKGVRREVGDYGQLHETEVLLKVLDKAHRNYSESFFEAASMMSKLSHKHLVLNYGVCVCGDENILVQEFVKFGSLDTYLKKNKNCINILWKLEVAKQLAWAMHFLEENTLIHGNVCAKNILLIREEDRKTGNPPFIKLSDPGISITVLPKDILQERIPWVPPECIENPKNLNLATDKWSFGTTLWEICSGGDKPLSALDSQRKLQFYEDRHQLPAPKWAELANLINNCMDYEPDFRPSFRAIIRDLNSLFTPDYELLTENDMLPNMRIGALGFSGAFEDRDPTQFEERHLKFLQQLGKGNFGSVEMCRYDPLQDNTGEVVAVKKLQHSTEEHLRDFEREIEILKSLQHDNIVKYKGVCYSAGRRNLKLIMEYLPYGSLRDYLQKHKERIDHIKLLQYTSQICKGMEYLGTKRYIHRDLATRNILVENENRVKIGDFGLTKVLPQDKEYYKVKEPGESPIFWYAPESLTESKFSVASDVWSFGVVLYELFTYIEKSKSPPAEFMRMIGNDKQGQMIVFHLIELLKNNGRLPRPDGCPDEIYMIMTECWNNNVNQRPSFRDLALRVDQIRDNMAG
Sequence of Serine/threonine-protein kinase D2 (Q9BZL6 whole entry): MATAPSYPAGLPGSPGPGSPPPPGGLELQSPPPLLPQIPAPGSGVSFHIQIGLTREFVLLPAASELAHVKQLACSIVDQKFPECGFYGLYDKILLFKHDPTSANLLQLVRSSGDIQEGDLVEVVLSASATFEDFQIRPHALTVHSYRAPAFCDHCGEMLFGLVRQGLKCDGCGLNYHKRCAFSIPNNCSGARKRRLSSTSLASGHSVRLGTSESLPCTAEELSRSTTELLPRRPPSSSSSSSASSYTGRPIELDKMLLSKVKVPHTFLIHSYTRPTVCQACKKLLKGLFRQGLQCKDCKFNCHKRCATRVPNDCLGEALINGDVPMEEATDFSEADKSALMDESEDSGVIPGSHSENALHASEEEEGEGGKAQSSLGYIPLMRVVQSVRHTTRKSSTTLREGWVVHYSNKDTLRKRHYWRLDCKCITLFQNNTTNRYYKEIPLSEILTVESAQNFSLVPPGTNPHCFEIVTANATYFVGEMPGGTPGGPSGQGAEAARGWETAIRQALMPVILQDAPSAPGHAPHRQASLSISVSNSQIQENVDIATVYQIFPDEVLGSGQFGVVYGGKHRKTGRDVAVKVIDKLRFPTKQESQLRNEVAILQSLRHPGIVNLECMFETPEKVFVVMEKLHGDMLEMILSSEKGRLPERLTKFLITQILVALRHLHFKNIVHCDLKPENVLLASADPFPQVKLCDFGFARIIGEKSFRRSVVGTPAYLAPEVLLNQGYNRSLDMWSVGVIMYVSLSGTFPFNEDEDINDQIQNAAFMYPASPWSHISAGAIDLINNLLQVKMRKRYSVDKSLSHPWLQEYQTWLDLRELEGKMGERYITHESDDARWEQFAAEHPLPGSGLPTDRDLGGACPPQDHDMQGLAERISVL
Sequence of Casein kinase II subunit alpha (P68400 whole entry): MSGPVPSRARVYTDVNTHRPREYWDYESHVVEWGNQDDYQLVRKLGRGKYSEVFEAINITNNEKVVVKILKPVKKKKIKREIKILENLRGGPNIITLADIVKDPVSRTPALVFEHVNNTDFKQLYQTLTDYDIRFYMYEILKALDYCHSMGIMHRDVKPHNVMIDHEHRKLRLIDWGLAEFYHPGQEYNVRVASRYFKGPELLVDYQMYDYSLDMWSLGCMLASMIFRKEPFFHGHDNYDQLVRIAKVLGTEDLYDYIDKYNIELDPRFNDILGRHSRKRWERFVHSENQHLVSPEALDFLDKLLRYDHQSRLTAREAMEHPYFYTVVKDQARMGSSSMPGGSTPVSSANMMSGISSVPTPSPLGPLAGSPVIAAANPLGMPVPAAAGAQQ
Sequence of Apelin receptor (P35414 whole entry, the tested form may be a part): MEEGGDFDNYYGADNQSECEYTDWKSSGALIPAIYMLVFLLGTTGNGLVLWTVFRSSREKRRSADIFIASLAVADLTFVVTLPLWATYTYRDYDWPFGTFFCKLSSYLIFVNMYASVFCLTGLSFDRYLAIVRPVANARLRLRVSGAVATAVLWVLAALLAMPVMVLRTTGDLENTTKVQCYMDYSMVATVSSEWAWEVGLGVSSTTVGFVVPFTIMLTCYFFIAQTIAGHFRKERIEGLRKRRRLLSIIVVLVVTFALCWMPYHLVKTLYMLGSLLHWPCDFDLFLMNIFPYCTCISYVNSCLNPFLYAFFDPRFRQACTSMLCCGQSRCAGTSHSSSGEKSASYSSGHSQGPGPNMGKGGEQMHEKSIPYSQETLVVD
Sequence of Serine/threonine-protein kinase pim-1 (P11309 whole entry): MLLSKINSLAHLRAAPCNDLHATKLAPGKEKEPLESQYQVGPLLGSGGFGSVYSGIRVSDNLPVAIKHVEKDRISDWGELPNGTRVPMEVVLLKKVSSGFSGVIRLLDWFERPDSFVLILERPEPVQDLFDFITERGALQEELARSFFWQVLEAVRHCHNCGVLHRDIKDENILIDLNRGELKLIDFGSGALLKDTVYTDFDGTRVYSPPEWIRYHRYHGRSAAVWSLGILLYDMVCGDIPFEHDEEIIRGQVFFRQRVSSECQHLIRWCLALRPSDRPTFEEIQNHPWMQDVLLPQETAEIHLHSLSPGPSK

As for `O=C(Nc1ccccc1)Nc1nccs1`, in test [1], the concentration for a half-maximal effect (EC50) (commonly the concentration needed to bring the measured effect to its halfway point) is > 50 µM (active). Also, the inhibition constant Ki (usually the equilibrium dissociation constant of an inhibitor or competing ligand from its target) on Aurora kinase A was 15.8 µM (active); in [2] it was 10 µM (active).
As to `Cc1cccc2c1N(CCCOc1ccc(C(C)(C)C)cc1)C(=O)C2=O`, the IC50 (in general, the concentration needed to halve the response being measured) at Apelin receptor is > 66.6 µM (inactive); in [3], 24.3 µM (inactive); in test [4], > 66.6 µM (inactive).
As to `Cc1c(C(=O)Nc2nc3ccc(Cl)cc3s2)oc2ccccc12`, the IC50 (in [5]; on Caspase-3; in test [6]; in [7]) was > 99 µM (inactive) in each case.
As for `O=C(c1ccc(Cl)cc1)N1CCN(c2ccc(C(F)(F)F)cn2)CC1`, the AC50 – broadly, the concentration at which the activity in the assay is half-maximal – with Candida albicans [8] is 130 µM (active); with Candida albicans [9], 0.259 µM (active).
Take `O=C1ON=C(c2ccc(Br)cc2)C1=Cc1ccc2c(c1)OCO2`: the Ki in test [10] is 2 µM (active); in test [11], 1.58 µM (active); in test [12] it was 7.94 µM (active); in test [13] it was 10 µM (active).
Take `COc1cccc(C(C)NC(=O)c2ccc(-c3ccncc3)cc2)c1` (stereo not given): the Ki in test [14] is > 2.51 µM (inactive); at Activin receptor type-1, > 3.98 µM (inactive); in test [15], > 2.51 µM (inactive); in test [16] it was > 7.94 µM (inactive); in test [17], > 2.51 µM (inactive); in test [18], > 2.51 µM (inactive). Further, the Ki in test [19], in [20] and in [21] was > 2.51 µM (inactive) throughout.
In the case of `Cc1ccc(NC(=O)Nc2ccc(-c3csc4c(-c5cnn(CC(=O)N(C)C)c5)cnc(N)c34)cc2)cc1`, the results for the Ki in test [22] and in test [23] were 0.158 µM (active) and > 100 µM (inactive), respectively.
With `Cc1cnc(Nc2ccc(N3CCN(C)CC3)cc2)nc1Nc1cccc(S(=O)(=O)NC(C)(C)C)c1`, the inhibition constant Ki in test [22] is 0.501 µM (active); on Wee1-like protein kinase it was 0.126 µM (active).
`CCN(CC)CCOc1ccc(Nc2ncc3cc(-c4c(Cl)cccc4Cl)c(=O)n(C)c3n2)cc1` [PD-0166285]: the figures for the Ki in [14], in test [24] and in [25] were 0.0398 µM (active), 0.0794 µM (active) and 0.0794 µM (active), respectively.
As for `NC(=O)c1ccc(N(C(N)=O)c2c(F)cccc2F)nc1-c1ccc(F)cc1F` [VX-702], the inhibition constant Ki in test [26] is 5.01 µM (active); in test [27] it was 2.51 µM (active); in [28], 2.51 µM (active).
